{"source": "patent US8198317B2", "about": "“Methylenedioxy phenolic compounds and their use to treat disease” (The Ohio State University Research Foundation, priority 2008, dated 2012)", "assay_type_in_all_cases": "in vivo, human", "key": {"[1]": {"test_system": "Humans", "test": "Treatment of established atherosclerosis in humans (Example 21)", "conditions": "oral, in excess of 12 months", "text": "Individuals with established atherosclerosis with evidence of plaque in the coronary arteries, carotid arteries or peripheral arteries are known to be at risk for future cardiovascular events such as heart attacks and strokes. These individuals are on treatments such as statins and anti-hypertensive agents such as ACE inhibitors, diuretics or calcium channel blockers. They also will receive an acceptable dose of a composition comprising a compound of the present invention in an acceptable carrier orally and chronically for durations in excess of 12 months. In one study, 3,4-methylenedioxy phenyl acetate (INV 73); 3,4-methylenedioxy-6-nitrophenol (INV 74); 3,4-methylenedioxy-6-nitrophenyl acetate (INV 75); 3,4-Methylenedioxy 6-nitro phenyl lipoate (INV-7465) or 3,4-Methylenedioxy phenyl lipoate (INV-7065) are administered to these individuals. A repeat IVUS measurement is made at the end of the treatment period to assess the effect of the infusion of the composition on coronary atherosclerosis in the target vessel."}, "[2]": {"test_system": "Humans", "test": "Treatment of atherosclerosis in humans, primary prevention (Example 22)", "conditions": "oral, in excess of 12 months", "text": "Individuals with risk factors for atherosclerosis such as family history, hypertension and high cholesterol are known to be at risk for future cardiovascular events such as heart attacks and strokes. These individuals are on primary prevention treatments such as hypolipidemic drug therapy such as statins aspirin and anti-hypertensive agents such as ACE inhibitors, diuretics or calcium channel blockers. They also will receive an acceptable dose of a composition comprising a compound of the present invention in an acceptable carrier orally chronically for durations in excess of 12 months. In one study, 3,4-methylenedioxy phenyl acetate (INV 73); 3,4-methylenedioxy-6-nitrophenol (INV 74); 3,4-methylenedioxy-6-nitrophenyl acetate (INV 75); 3,4-Methylenedioxy 6-nitro phenyl lipoate (INV-7465) or 3,4-Methylenedioxy phenyl lipoate (INV-7065) are administered to these individuals. A repeat IVUS measurement is made at the end of the treatment period to assess the effect of the infusion of the composition on coronary atherosclerosis in the target vessel."}, "[3]": {"test_system": "Humans", "test": "Prevention or delay of onset of atherosclerosis in humans (Example 23)", "conditions": "2 mg/kg to 50 mg/kg iv or im, one to six months", "procedure": "Individuals with documented risk factors for atherosclerosis and having high plasma cholesterol levels have a ultrasound analysis of the coronary (IVUS), carotid (IMT) or popliteal arteries to establish a baseline measurement. A portion of these individuals are […] administered a composition comprising a compound of the present invention in an acceptable carrier at a dose of 2 mg/kg to 50 mg/kg intravenously (iv) or intramuscular (im) I to 3 times per week over a period of approximately one to six months. The following compounds are administered to these individuals: 3,4-methylenedioxy phenyl acetate (INV 73); 3,4-methylenedioxy-6-nitrophenol (INV 74); 3,4-methylenedioxy-6-nitrophenyl acetate (INV 75); 3,4-Methylenedioxy 6-nitro phenyl lipoate (INV-7465) or 3,4-Methylenedioxy phenyl lipoate (INV-7065). The other individuals receive the carrier alone. A new ultrasound analysis at the end of the treatment period indicates higher levels of plaque in the vessels of individuals receiving the carrier."}, "[4]": {"test_system": "Patients", "test": "Treatment of patients with Type I and Type II diabetes (Example 24)", "conditions": "diabetic patients, oral, 12 months", "text": "Individuals with Type I and Type II diabetes are at risk for future cardiovascular events such as heart attacks, strokes and kidney disease. These individuals are on prevention treatments such as hypolipidemic drug therapy such as statins and anti-hypertensive agents such as ACE inhibitors. They are already receiving glycemia lowering strategies such as Insulin, PPARγ agents, Metformin or sulfonylurea therapy. They also will receive an acceptable dose of a composition comprising a compound of the present invention in an acceptable carrier orally chronically for durations in excess of 12 months. In one study, 3,4-Methylenedioxy 6-nitro phenyl lipoate (INV-7465) or 3,4-Methylenedioxy phenyl lipoate (INV-7065) are administered to these individuals. The patients undergo the following measurements: HbA1C to assess glycemic control, urinary microalbuminura, blood pressure and lipid measurements. At the end of 12 months of treatment, there is lowering of HbA1C and urinary microalbuminuria. There is an improvement in VLDL cholesterol and a decrease in triglycerides with any of these treatments [(3,4-methylenedioxy phenyl acetate (INV 73); 3,4-methylenedioxy-6-nitrophenol (INV 74); 3,4-methylenedioxy-6-nitrophenyl acetate (INV 75); 3,4-Methylenedioxy 6-nitro phenyl lipoate (INV-7465) or 3,4-Methylenedioxy phenyl lipoate (INV-7065)]."}, "[5]": {"test_system": "Patient", "test": "Treatment of a patient with recent myocardial infarction (Examples 16-18)", "conditions": "oral, 1.0 to 100 mg/kg", "procedure": "(§1) A person presents with sudden chest pain typically radiating to the left arm or left side of the neck, shortness of breath, nausea and palpitation with vomiting and sweating. After being evaluated with an electrocardiogram (EKG, ECG), a chest X-ray and blood tests to detect elevations in cardiac markers (blood tests to detect heart muscle damage), they are diagnosed as suffering from myocardial infarction. The patient is administered therapy such as aspirin, a drug to reduce the tendency of platelet aggregation, such as clopidogrel bisulfate, a statin, IV heparin and taken to the catheterization laboratory where they undergo stenting of the coronary artery. They are allowed to recover for a 12-24 hour period. Oral therapy with 3,4-methylenedioxy-6-nitrophenyl acetate (INV 75) (1.0 to 100 mg/kg) is started and continued for at least a year. During the follow-up visit a month later, patient reports improvement in symptoms.\nas §1, with “Oral therapy with 3,4-methylenedioxy-6-nitrophenyl acetate (INV 75) (1.0 to 100 mg/kg) is started and continued for at least a year. During the follow-up visit a month later, patient reports improvement in symptoms.” left out\nA person presents with sudden chest pain typically radiating to the left arm or left side of the neck, shortness of breath, nausea and palpitation with vomiting and sweating. After being evaluated with an electrocardiogram (EKG, ECG), a chest X-ray and blood tests to detect elevations in cardiac markers (blood tests to detect heart muscle damage), they are diagnosed as suffering from myocardial infarction. […]"}}}
{"smiles": "CC(=O)Oc1cc2c(cc1[N+](=O)[O-])OCO2", "note": "[INV-75, 3,4-methylenedioxy-6-nitrophenyl acetate]", "values": [{"measurement": "plaque in the atherosclerotic coronary artery (IVUS)", "setting": "[1]", "value": "reduced"}, {"measurement": "plaque in the atherosclerotic coronary artery (IVUS)", "setting": "[2]", "value": "reduced"}, {"measurement": "preventing or reducing atherosclerosis (ultrasound, versus carrier alone)", "setting": "[3]", "value": "effective"}, {"measurement": "VLDL cholesterol", "setting": "[4]", "value": "improvement"}, {"measurement": "triglycerides", "setting": "[4]", "value": "decrease"}, {"measurement": "symptoms at follow-up visit a month later", "setting": "[5]", "value": "improvement"}]}
{"smiles": "O=C(CCCCC1CCSS1)Oc1ccc2c(c1)OCO2", "note": "(stereo not shown) [INV-7065, 3,4-Methylenedioxy phenyl lipoate]", "values": [{"measurement": "plaque in the atherosclerotic coronary artery (IVUS)", "setting": "[1]", "value": "reduced"}, {"measurement": "plaque in the atherosclerotic coronary artery (IVUS)", "setting": "[2]", "value": "reduced"}, {"measurement": "preventing or reducing atherosclerosis (ultrasound, versus carrier alone)", "setting": "[3]", "value": "effective"}, {"measurement": "HbA1C", "setting": "[4]", "value": "lowering"}, {"measurement": "VLDL cholesterol", "setting": "[4]", "value": "improvement"}, {"measurement": "triglycerides", "setting": "[4]", "value": "decrease"}, {"measurement": "urinary microalbuminuria", "setting": "[4]", "value": "lowering"}, {"measurement": "symptoms at follow-up visit a month later", "setting": "[5]", "value": "improvement"}]}
{"smiles": "O=C(CCCCC1CCSS1)Oc1cc2c(cc1[N+](=O)[O-])OCO2", "note": "(stereo not shown) [INV-7465, 3,4-Methylenedioxy 6-nitro phenyl lipoate]", "values": [{"measurement": "plaque in the atherosclerotic coronary artery (IVUS)", "setting": "[1]", "value": "reduced"}, {"measurement": "plaque in the atherosclerotic coronary artery (IVUS)", "setting": "[2]", "value": "reduced"}, {"measurement": "preventing or reducing atherosclerosis (ultrasound, versus carrier alone)", "setting": "[3]", "value": "effective"}, {"measurement": "HbA1C", "setting": "[4]", "value": "lowering"}, {"measurement": "VLDL cholesterol", "setting": "[4]", "value": "improvement"}, {"measurement": "triglycerides", "setting": "[4]", "value": "decrease"}, {"measurement": "urinary microalbuminuria", "setting": "[4]", "value": "lowering"}, {"measurement": "symptoms at follow-up visit a month later", "setting": "[5]", "value": "improvement"}]}
